Experimental data: ChEMBL document CHEMBL2074181, “Interactions of glycyrrhizin with organic anion transporting polypeptides of rat and human liver” (Hepatol Res, 2003)

How the values were obtained:
[1] = target: T1, Solute carrier organic anion transporter family member 1B3 (Homo sapiens, UniProt Q9NPD5); assay: TP_TRANSPORTER: inhibition of BSP uptake in Xenopus laevis oocytes; format: functional, cell-based, Oocyte
T1 sequence (Q9NPD5 whole entry): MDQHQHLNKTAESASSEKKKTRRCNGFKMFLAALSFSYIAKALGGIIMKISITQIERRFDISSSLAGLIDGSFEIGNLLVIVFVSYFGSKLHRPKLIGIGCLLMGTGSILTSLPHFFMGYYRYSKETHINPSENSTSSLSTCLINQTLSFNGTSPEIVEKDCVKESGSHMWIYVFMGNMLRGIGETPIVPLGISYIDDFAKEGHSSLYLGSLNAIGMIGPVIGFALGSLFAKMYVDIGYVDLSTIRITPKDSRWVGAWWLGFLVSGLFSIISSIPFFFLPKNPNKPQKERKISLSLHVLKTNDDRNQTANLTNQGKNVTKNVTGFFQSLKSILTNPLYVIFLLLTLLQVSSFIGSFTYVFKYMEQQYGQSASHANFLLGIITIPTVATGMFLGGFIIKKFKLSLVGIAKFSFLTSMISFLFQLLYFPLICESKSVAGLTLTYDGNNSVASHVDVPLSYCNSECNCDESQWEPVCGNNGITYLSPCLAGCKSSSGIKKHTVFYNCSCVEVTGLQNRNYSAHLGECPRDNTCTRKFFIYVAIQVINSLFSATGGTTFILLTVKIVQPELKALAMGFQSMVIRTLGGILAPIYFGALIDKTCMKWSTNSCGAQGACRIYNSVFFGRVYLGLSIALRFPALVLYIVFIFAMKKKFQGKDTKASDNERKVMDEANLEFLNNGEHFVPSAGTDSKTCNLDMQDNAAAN

[2] = target: T2, Solute carrier organic anion transporter family member 1A2 (Homo sapiens, UniProt P46721); assay: TP_TRANSPORTER: inhibition of E1S uptake (E1S: 0.05 uM, GL: 100 uM) by Glycyrrhizic acid at a concentration of 100 u M in Xenopus laevis oocytes; format: functional, cell-based; details: oocyte
T2 sequence (P46721 whole entry): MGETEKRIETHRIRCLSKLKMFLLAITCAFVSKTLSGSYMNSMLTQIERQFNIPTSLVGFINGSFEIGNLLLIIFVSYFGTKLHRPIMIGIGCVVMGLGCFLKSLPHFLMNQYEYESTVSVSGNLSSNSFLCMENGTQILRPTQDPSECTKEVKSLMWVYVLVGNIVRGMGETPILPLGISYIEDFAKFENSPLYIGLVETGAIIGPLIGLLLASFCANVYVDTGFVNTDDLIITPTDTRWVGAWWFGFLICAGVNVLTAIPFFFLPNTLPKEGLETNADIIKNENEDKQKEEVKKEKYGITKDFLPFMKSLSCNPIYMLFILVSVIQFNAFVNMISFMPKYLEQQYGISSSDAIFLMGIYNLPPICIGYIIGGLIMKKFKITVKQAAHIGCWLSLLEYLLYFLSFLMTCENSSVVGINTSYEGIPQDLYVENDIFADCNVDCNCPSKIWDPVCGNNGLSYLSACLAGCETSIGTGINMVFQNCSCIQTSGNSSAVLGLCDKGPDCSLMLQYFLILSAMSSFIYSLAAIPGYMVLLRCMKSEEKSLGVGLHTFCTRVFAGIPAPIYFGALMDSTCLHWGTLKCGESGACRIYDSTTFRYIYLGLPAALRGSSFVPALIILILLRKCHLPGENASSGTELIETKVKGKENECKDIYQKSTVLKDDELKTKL

[3] = target: T3, Solute carrier organic anion transporter family member 1A1 (Rattus norvegicus, UniProt P46720); assay: (§1) TP_TRANSPORTER: inhibition of E1S uptake (E1S: 0.05 uM, GL: 100 uM) in Xenopus laevis oocytes; format: functional, cell-based; parameters: scale not given: the % may be the effect or the level left; details: oocyte
T3 sequence (P46720 whole entry): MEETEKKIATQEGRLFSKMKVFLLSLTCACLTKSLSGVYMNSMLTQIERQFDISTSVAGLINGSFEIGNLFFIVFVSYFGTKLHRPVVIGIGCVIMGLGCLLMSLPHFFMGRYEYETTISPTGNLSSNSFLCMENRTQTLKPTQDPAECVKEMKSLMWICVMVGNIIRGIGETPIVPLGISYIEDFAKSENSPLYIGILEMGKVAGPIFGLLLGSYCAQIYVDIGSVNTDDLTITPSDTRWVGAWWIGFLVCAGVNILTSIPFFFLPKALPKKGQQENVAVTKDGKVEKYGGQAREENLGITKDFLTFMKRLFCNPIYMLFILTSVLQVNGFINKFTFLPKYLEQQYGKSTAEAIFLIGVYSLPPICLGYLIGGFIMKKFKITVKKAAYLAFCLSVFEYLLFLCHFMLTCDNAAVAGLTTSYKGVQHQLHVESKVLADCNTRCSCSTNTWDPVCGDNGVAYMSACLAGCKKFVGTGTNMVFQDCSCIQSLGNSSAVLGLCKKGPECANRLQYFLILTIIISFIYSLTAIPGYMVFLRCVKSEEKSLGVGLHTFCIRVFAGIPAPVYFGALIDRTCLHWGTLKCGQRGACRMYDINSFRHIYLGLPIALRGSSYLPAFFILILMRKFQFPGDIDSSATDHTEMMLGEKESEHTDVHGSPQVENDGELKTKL

[4] = target: T4, Solute carrier organic anion transporter family member 2B1 (Homo sapiens, UniProt O94956); assay: TP_TRANSPORTER: inhibition of E1S uptake (E1S: 0.05 uM, GL: 100 uM) of Glycyrrhizic acid at a concentration of 100 u M in Xenopus laevis oocytes; format: functional, cell-based; details: oocyte
T4 sequence (O94956 whole entry): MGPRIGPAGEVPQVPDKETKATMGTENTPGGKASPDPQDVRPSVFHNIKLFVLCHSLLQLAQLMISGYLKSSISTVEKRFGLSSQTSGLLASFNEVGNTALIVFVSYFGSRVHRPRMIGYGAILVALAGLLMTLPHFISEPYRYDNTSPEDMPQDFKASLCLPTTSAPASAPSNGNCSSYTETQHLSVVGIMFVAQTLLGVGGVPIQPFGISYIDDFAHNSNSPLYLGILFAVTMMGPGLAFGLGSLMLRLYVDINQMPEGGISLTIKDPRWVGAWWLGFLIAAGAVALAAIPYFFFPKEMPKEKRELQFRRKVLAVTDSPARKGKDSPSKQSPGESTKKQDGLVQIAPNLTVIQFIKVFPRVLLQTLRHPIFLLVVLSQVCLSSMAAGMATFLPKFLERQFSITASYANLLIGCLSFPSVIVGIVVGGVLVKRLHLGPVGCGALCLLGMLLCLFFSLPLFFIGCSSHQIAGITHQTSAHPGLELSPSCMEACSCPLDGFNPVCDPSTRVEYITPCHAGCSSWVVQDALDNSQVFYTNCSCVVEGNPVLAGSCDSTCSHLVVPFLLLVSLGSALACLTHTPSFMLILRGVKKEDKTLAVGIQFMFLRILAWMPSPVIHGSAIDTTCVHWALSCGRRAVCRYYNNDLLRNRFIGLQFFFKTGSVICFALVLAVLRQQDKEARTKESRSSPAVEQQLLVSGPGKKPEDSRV

[5] = target: T5, Solute carrier organic anion transporter family member 1B1 (Homo sapiens, UniProt Q9Y6L6); assay: (§2) TP_TRANSPORTER: inhibition of E1S uptake in Xenopus laevis oocytes; format: functional, cell-based, Oocyte
T5 sequence (Q9Y6L6 whole entry): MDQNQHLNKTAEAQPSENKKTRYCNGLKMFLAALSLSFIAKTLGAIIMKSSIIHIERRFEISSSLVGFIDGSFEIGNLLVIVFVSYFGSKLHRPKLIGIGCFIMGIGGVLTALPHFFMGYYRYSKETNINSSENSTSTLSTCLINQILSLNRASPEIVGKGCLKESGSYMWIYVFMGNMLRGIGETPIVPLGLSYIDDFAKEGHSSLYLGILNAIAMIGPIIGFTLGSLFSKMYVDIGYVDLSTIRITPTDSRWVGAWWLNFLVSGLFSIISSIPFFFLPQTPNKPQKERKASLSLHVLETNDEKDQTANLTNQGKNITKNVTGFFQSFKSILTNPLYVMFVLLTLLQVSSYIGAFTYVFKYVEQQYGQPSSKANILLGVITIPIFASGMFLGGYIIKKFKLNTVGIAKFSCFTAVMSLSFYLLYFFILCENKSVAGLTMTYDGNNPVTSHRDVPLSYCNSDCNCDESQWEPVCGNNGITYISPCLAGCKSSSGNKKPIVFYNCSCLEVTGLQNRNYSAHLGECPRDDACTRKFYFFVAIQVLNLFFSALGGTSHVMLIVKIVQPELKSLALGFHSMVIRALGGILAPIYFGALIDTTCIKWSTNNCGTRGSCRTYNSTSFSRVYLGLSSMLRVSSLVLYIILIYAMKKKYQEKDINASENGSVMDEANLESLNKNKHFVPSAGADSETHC

[6] = target: T6, Solute carrier organic anion transporter family member 1B2 (Rattus norvegicus, UniProt Q9QZX8); assay: as §2; format: functional, cell-based, Oocyte
T6 sequence (Q9QZX8 whole entry): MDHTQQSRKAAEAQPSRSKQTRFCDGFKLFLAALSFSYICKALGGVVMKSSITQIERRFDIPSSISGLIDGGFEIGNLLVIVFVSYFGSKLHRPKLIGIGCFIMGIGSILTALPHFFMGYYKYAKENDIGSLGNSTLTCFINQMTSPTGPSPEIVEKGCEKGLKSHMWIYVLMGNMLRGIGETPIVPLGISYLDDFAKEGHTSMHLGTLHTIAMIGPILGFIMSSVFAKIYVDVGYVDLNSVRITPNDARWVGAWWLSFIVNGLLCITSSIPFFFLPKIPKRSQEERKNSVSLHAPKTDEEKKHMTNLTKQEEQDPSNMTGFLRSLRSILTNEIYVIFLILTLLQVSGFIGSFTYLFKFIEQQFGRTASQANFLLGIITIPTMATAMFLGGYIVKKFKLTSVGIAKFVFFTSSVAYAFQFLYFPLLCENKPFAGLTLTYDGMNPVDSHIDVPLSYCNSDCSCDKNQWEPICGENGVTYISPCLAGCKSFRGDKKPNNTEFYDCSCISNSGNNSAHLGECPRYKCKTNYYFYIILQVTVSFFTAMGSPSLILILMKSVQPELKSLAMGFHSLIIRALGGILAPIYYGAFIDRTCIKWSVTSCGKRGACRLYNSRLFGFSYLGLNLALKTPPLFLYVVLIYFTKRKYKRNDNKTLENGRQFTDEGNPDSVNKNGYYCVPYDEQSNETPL

[7] = target: T7, Solute carrier organic anion transporter family member 1A4 (OATP1A4) (Rattus norvegicus, UniProt O35913); assay: as §1; format: functional, cell-based, Oocyte; parameters: scale not given: the % may be the effect or the level left; details: Xenopus laevis oocytes expressing OATP1A4, probe E1S (0.05 uM), read-out: Activity
T7 sequence (O35913 whole entry): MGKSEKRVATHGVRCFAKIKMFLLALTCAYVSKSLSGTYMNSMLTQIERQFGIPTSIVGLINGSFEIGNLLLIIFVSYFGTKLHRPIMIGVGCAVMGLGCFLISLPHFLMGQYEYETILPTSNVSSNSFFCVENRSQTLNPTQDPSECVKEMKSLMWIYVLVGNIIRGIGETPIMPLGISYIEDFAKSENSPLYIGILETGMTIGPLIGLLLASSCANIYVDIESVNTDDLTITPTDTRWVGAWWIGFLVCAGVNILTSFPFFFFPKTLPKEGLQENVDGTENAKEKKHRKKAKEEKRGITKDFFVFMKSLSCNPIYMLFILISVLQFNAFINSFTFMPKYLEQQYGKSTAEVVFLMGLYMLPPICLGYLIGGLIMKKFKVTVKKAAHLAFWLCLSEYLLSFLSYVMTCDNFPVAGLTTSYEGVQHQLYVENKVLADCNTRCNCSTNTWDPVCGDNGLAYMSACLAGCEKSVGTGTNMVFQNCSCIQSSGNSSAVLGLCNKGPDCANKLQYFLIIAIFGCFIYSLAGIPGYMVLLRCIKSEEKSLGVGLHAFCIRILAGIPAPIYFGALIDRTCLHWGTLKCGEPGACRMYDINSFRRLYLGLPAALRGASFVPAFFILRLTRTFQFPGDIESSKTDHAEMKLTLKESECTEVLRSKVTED

[8] = target: T8, Solute carrier organic anion transporter family member 1A5 (OATP1A5) (Rattus norvegicus, UniProt O88397); assay: as §1; format: functional, cell-based, Oocyte; parameters: scale not given: the % may be the effect or the level left; details: Xenopus laevis oocytes expressing OATP1A5, probe E1S (0.05 uM), read-out: Activity
T8 sequence (O88397 whole entry): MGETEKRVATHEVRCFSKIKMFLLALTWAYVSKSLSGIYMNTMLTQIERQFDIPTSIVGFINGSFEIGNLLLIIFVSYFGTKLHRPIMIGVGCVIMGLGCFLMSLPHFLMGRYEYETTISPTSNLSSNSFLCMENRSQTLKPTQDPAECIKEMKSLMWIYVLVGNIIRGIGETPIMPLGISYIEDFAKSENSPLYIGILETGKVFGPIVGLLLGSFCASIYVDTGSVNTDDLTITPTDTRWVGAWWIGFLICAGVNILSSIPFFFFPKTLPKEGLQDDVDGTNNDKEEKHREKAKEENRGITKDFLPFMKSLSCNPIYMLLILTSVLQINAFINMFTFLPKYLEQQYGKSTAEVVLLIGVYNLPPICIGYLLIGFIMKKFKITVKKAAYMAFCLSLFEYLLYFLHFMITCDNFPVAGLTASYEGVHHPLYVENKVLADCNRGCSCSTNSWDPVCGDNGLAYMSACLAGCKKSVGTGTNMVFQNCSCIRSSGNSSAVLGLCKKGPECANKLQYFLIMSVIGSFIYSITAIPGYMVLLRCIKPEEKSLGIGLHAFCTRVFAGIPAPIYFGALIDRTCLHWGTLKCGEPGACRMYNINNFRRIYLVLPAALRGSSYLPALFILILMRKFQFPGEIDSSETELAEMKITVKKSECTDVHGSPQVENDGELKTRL

[9] = target: T9, Solute carrier organic anion transporter family member 1B3 (OATP1B3) (Homo sapiens, UniProt Q9NPD5); assay: as §1; format: functional, cell-based, Oocyte; parameters: scale not given: the % may be the effect or the level left; details: Xenopus laevis oocytes expressing OATP1B3, probe E1S (0.05 uM), read-out: Activity
T9 sequence (Q9NPD5 whole entry): T1 sequence (Q9NPD5 whole entry)

## CC1(C)[C@@H](O[C@H]2O[C@H](C(=O)O)[C@@H](O)[C@H](O)[C@H]2O[C@@H]2O[C@H](C(=O)O)[C@@H](O)[C@H](O)[C@H]2O)CC[C@]2(C)[C@H]3C(=O)C=C4[C@@H]5C[C@@](C)(C(=O)O)CC[C@]5(C)CC[C@@]4(C)[C@]3(C)CC[C@@H]12 [GLYCYRRHIZIN]
[1]
  Ki: 12.5 µM
[2]
  Activity: is not an inhibitor [-]
[3]
  Activity: 52%
[4]
  Activity: is not an inhibitor [-]
[5]
  Ki: 15.9 µM
[6]
  Ki: 6.1 µM
[7]
  activity at 100 µM: 47%
[8]
  activity at 100 µM: 51%
[9]
  activity at 100 µM: 0%
